Results published in paper PMC7125202, “Targeting of radioactive platinum-bisphosphonate anticancer drugs to bone of high metabolic activity” (Scientific Reports, 2020).

Assay: Pt-BP pH stability assessed by 31P NMR
Type: physicochemical
Details: 120 mM NaCl, D2O, 37 °C
Protocol: ^31P NMR spectra were recorded on a Bruker Avance III […] instrument. Standard pulse sequences were used for ^31P{1H} (121.5 MHz) spectra. Chemical shifts (^31P) were referenced to external H3PO4 (85% w/w; 0 ppm). A Crison Micro-pH meter Model 2002, equipped with Crison microcombination electrodes (5- and 3-mm diameter) and calibrated with Crison standard buffer solution at pH 4.01, 7.02, and 10.00, was used for pH measurements. The pH readings from the pH meter for D2O solutions are indicated as pD values and are uncorrected for the effect of deuterium on glass electrodes. The stability of Pt-BP in buffered solutions at 37 °C was assessed by ^31P NMR spectroscopy as previously reported. Pt-BP (∼4 mg) was dissolved in 0.8 mL of D2O containing (i) 50 mM 4-(2-hydroxyethyl)-1-piperazineethanesulfonic acid) (HEPES) buffer (pD = 7.4) and 120 mM NaCl or (ii) 50 mM 2-(N-morpholino)ethanesulfonic acid (MES) buffer (pD = 5.25) and 120 mM NaCl. The resulting two solutions were transferred into NMR tubes and maintained at 37 °C. ^31P NMR spectra were recorded over a period of 15 days. The relative concentrations of the individual species in solution were deduced from integration of the ^31P signals.
To investigate the stability of Pt-BP in near-physiological conditions, we utilized a medium consisting of D2O containing HEPES buffer (50 mM, pH = 7.4) and NaCl (120 mM) at 37 °C, in which we analyzed Pt-BP stability by ^31P-NMR spectroscopy. […] Two other asymmetrical species are visible in the ^31P-NMR spectrum recorded after 3 h as evidenced by the two pairs of doublets falling at 28.15 and 22.98 ppm and 26.25 and 21.51 ppm (indicated by the black squares and diamonds in Supplement Fig. 2A). […]
To simulate the acidic environment in tumor tissue^3,4, we explored the stability of Pt-BP complexes at pD = 5.25 at 37 °C by ^31P-NMR spectroscopy (Supplement Fig. 2B). […] However, the formation of M was slower at acidic pD, while its hydrolysis, with concomitant formation of free bisphosphonate (BP), was faster than at pD 7.4 since Pt-BP and BP were detected after 48 h (Supplement Fig. 2B).

With `NCCN.NCCN.O.O.O.O=S(=O)([O-])O.[NH3+]CC1(O)P2(=O)[O][Pt][O]P1(=O)[O][Pt][O]2` (stereo not drawn) [Pt-BP, dinuclear bis<ethylenediamineplatinum(II) > -2-amino-1-hydroxyethane-1,1-diyl-bisphosphonate complex] the “time of release of both Pt(en) moieties (free BP detected)” value (pD 5.25, 50 mM MES) was 48 h, the “time after which no traces of the starting Pt-BP complex were observed” value (pD 7.4, 50 mM HEPES) was no more than 24 h and the “time of release of the second Pt(en) moiety (appearance of free BP)” value (pD 7.4, 50 mM HEPES) was 96 h.
